From patent publication US11584737B2, “Heterocyclic compound” (TAKEDA PHARMACEUTICAL COMPANY LIMITED, priority 2018, dated 2023)

How the values were obtained:
[1] = system: A2780 intracellular CTD pSer2; experiment: CTD pSer2 measurement using human ovarian cancer cell A2780 and In-Cell Western method; assay type: cell-based; settings: inhibitory rate against A2780 intracellular CTD pSer2 at 1 μM test compound, 4 hr
Protocol: Experimental Example 3: CTD pSer2 Measurement Using Human Ovarian Cancer Cell A2780 and In-Cell Western Method
A2780 cells (ATCC) were seeded in a 96 well plate at 1.8×10^4 cells/well, and the cells were cultured overnight in a cell culture medium RPMI1640 (FUJIFILM Wako Pure Chemical Corporation) containing 10% FBS (fetal bovine serum) and 1% penicillin/streptomycin. A test compound dissolved in a cell medium was added, and the mixture was stood for 4 hr in a CO2 incubator (37° C.). The cells were fixed with ALTFiX (Falma) for 30 min, and washed 3 times with a washing buffer (20 mM Tris-HCl (pH 7.5), 500 mM NaCl, 0.1% Tween20). 0.1% Triton-X-100 diluted with PBS(−) was added and the mixture was incubated at room temperature for 15 min. Thereafter, a blocking buffer (LI-COR) was added, and the mixture was incubated at room temperature for 1 hr. An anti-CTD pS2 antibody (Abcam) suspended in an antibody diluent (blocking buffer: PBS(−)-diluted 0.1% Tween20=1:1) was added, and the mixture was incubated at room temperature for 1 hr. The mixture was […] with a washing buffer, IRDye800CW-labeled anti-goat antibody (LI-COR) was added, and the mixture was incubated at room temperature for 1 hr. The mixture was washed 3 times with a washing buffer, and the fluorescence wavelength at 800 nm was measured by Aerius (LI-COR).
The inhibitory rate (%) of the test compound against A2780 intracellular CTD pSer2 was calculated by the following formula. Inhibitory rate (%)=(1−(count of test compound−blank)÷(control−blank))×100
The count of the A2780 cell under compound non-addition conditions is indicated as control, and the count under compound non-addition and primary antibody non-addition conditions is indicated as blank.
The results measured by the above-mentioned method (inhibitory rate of the signal value at 1 μM test compound relative to control) are shown below.

CDK12/CycK enzyme = CDK12/CycK enzyme (Homo sapiens, UniProt Q9NYV4); experiment: Measurement of CDK12/CycK inhibitory activity (ULight-4E-BP1 peptide phosphorylation, LANCE); assay type: biochemical; settings: inhibitory rate against CDK12/CycK at 1 μM test compound, ATP 10 μM or 500 μM
Chain of CDK12/CycK enzyme (Q9NYV4 whole entry, species assumed): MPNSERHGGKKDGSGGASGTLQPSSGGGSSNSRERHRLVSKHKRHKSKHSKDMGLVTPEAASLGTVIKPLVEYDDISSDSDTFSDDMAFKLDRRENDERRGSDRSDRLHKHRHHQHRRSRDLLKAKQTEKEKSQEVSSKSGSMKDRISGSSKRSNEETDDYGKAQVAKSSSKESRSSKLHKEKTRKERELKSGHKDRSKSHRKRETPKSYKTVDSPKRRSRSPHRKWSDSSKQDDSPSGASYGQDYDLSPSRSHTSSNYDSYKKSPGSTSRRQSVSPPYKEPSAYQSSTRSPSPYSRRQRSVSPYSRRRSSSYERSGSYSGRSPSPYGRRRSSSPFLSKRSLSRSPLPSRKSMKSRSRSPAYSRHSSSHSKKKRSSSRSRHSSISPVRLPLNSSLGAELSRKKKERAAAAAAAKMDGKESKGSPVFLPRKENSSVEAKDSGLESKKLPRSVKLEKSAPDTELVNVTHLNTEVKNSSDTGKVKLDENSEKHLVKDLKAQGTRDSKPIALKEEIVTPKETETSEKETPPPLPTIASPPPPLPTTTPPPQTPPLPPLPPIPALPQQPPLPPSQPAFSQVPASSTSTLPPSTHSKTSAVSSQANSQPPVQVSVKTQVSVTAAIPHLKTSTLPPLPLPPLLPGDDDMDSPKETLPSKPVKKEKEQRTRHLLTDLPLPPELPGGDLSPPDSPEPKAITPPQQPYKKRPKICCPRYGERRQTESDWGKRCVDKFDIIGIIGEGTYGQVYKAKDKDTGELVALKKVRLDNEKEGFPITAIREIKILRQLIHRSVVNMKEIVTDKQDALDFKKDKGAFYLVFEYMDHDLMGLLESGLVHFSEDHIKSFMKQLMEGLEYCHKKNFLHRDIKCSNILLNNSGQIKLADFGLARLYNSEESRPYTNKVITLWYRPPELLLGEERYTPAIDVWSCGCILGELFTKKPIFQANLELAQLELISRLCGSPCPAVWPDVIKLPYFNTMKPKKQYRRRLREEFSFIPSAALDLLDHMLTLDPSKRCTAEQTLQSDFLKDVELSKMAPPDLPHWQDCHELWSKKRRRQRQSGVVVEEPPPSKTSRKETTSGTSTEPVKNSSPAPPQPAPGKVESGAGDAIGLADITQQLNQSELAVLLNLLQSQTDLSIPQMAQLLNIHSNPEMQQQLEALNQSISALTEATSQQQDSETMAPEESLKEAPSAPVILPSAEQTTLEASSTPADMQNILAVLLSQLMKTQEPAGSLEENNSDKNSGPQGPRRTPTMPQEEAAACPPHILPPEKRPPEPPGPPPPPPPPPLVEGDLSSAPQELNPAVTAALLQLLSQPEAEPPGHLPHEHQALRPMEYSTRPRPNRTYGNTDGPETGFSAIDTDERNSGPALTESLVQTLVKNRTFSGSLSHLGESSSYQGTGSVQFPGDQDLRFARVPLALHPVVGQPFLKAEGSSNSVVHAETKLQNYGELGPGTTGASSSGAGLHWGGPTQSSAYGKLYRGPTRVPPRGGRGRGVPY
Chain of CDK12/CycK enzyme (O75909 whole entry partner, species assumed): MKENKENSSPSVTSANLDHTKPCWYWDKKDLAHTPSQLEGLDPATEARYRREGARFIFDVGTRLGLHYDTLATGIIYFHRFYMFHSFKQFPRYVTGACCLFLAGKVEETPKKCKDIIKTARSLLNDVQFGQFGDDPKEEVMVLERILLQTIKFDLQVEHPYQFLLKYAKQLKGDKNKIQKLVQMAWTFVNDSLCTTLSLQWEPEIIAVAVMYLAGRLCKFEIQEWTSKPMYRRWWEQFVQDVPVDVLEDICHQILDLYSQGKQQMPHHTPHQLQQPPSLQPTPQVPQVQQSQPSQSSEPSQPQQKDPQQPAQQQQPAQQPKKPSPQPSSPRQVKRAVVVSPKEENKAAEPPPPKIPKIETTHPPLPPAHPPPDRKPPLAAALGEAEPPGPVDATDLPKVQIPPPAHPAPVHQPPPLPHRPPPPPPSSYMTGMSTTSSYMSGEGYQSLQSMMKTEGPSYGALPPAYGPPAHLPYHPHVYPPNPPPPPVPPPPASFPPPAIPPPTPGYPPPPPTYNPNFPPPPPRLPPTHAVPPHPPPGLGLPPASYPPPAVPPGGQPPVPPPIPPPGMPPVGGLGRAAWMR
Protocol: Experimental Example 2: Measurement of CDK12/CycK Inhibitory Activity
A test compound dissolved in DMSO was added to a reaction solution (50 mM HEPES (pH 7.5), 10 mM MgCl2, 1 mM DTT, 0.01% Tween 20, 0.01% BSA) containing CDK12/CycK enzyme and ULight-labeled eIF4E-binding protein 1 (4E-BP1) (Thr37/Thr46) peptide (PerkinElmer), and the mixture was reacted at room temperature for 60 min. […] was added to give an ATP solution with a final concentration of 10 μM or 500 μM to start the enzyme reaction, and the mixture was reacted at room temperature for 60 min. A LANCE Detection buffer (PerkinElmer) containing europium-labeled anti-phosphorylation 4E-BP1 (Thr37/Thr46) antibody (PerkinElmer) and EDTA (final concentration 10 mM) was added to discontinue the reaction. After standing for 60 min, time decomposition fluorescence value (excitation 320 nm, emission 615 nm, 665 nm) was measured by Envision (PerkinElmer). The inhibitory rate (%) of the test compound against CDK12/CyclinK was calculated by the following formula. Inhibitory rate (%)=(1−(count of test compound−blank)÷(control−blank))×100
The count of the CDK12 enzyme reaction mixture under compound non-addition conditions is indicated as control, and the count under compound non-addition and CDK12/CycK enzyme non-addition conditions is indicated as blank.
The results measured by the above-mentioned method (inhibitory rate (%) of the signal value at 1 μM test compound relative to control is shown below.

CDK12/CycK complex = CDK12/CycK complex (Homo sapiens, UniProt Q9NYV4); experiment: Measurement of CDK12 inhibitory activity by binding assay (TR-FRET, 66 nM BODIPY-FL-labeled AT-7519); settings: inhibitory rate against CDK12 at 1 μM test compound, 66 nM BODIPY-FL-labeled AT-7519, 2 nM CDK12/CycK
Chain of CDK12/CycK complex (Q9NYV4 whole entry, species assumed): as the sequence (Q9NYV4 whole entry, species assumed) above
Chain of CDK12/CycK complex (O75909 whole entry partner, species assumed): as the sequence (O75909 whole entry partner, species assumed) above
Outline: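 His-tagged CDK12/CycK (2 nM) premixed with 66 nM BODIPY-FL-AT-7519 tracer, 0.2 nM Tb-streptavidin and 0.4 nM biotin-anti-His, then incubated with compound 120 min at room temperature. Tracer displacement read as BODIPY-FL/Tb TR-FRET ratio; percent inhibition normalized to no-compound control and 3 μM AT-7519 blank.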

A2780 cells = experiment: In vitro proliferation suppression test (CellTiter-Glo); assay type: cell-based, human; settings: Homo sapiens, 72 h, A2780 cell proliferation inhibitory rate at 1 μM test compound, three days
Protocol: Experimental Example 4: In Vitro Proliferation Suppression Test
The proliferation suppressive activity of compound in A2780 cells was evaluated by the following method.
A2780 cells were seeded in a 384-well white plate at a cell density of 1,000 cells/40 μL/well or a 96-well white plate at a cell density of 1,000 cells/90 μL/well using an assay medium (RPMI1640 medium containing 10% fetal bovine serum (FUJIFILM Wako Pure Chemical Corporation)) and incubated at 37° C. in 5% CO2.
The next day, a test compound dissolved in dimethyl sulfoxide (DMSO) was diluted with an assay medium, the obtained compound solution was added by 40 μL/well or 10 μL/well to each well of the plate containing A2780 cells and the mixture was incubated (test compound addition group). In addition, a similar reaction was performed without adding the test compound (test compound non-addition group).
Three days later, 80 μL or 100 μL of CellTiter-Glo reagent (Promega) was added, and the mixture was stirred for 10 min. Thereafter, the luminescence of each well was measured by ARVO-MX multilabel counter (Perkin Elmer Inc.).
The proliferation inhibitory rate (%) of each test compound against A2780 cells was calculated by the following calculation formula. Proliferation inhibitory rate (%)=(1−luminescence of test compound addition group÷luminescence of test compound non-addition group)×100
The A2780 cell proliferation inhibitory rate (%) of 1 μM test compound is shown below.

Compound | inhibition at 1 µM (CDK12/CycK enzyme) [%] | inhibition at 1 µM (CDK12/CycK complex) [%] | inhibition at 1 µM [1] [%] | inhibition at 1 µM (A2780 cells) [%]
COc1ncc(-c2ccc(N(C(=O)NCc3ccccc3)[C@H]3CC[C@H](Nc4ncc(C(F)(F)F)c(OC5COC5)n4)CC3)nc2)cn1 [Example 588, 3-benzyl-1-(5-(2-methoxypyrimidin-5-yl)pyridin-2-yl)-1-(trans-4-((4-(oxetan-3-yloxy)-5-(trifluoromethyl)pyrimidin-2-yl)amino)cyclohexyl)urea] | 100 | 99 | 75 | 98
COc1ncc(-c2ccc(N(C(=O)OCc3ccccc3)[C@H]3CC[C@H](Nc4ncc(C#N)c(NC5COC5)n4)CC3)nc2)cn1 [Example 581, benzyl (trans-4-((5-cyano-4-(oxetan-3-ylamino)pyrimidin-2-yl)amino)cyclohexyl) (5-(2-methoxypyrimidin-5-yl)pyridin-2-yl)carbamate] | 102 | 88 | 70 | 99
Cn1cc(-c2ccc(N(C(=O)NCc3ccccc3)[C@H]3CC[C@H](Nc4ncc(C(F)(F)F)c(NC5COC5)n4)CC3)nc2)cn1 [Example 574, 3-benzyl-1-(5-(1-methyl-1H-pyrazol-4-yl)pyridin-2-yl)-1-(trans-4-((4-(oxetan-3-ylamino)-5-(trifluoromethyl)pyrimidin-2-yl)amino)cyclohexyl)urea] | 99 | 103 | 83 | 97
Cn1cc(-c2ccc(N(C(=O)NCc3ccccc3)[C@H]3CC[C@H](Nc4ncc(C#N)c(OC5COC5)n4)CC3)nc2)cn1 [Example 485, 3-benzyl-1-(trans-4-((5-cyano-4-(oxetan-3-yloxy)pyrimidin-2-yl)amino)cyclohexyl)-1-(5-(1-methyl-1H-pyrazol-4-yl)pyridin-2-yl)urea] | 103 | 102 | 63 | 97
COc1ncc(-c2ccc(N(C(=O)NCc3ccccc3)[C@H]3CC[C@H](Nc4ncc(C#N)c(-c5cn[nH]c5C)n4)CC3)nc2)cn1 [Example 577, 3-benzyl-1-(trans-4-((5-cyano-4-(5-methyl-1H-pyrazol-4-yl)pyrimidin-2-yl)amino)cyclohexyl)-1-(5-(2-methoxypyrimidin-5-yl)pyridin-2-yl)urea] | 98 | 88 | 87 | 94
Cn1cc(-c2ccc(N(C(=O)NCc3ccccc3)[C@H]3CC[C@H](Nc4ncc(C#N)c(NC5COC5)n4)CC3)nc2)cn1 [Example 319, 3-benzyl-1-(trans-4-((5-cyano-4-(oxetan-3-ylamino)pyrimidin-2-yl)amino)cyclohexyl)-1-(5-(1-methyl-1H-pyrazol-4-yl)pyridin-2-yl)urea] | 98 | 94 | 69 | 97
Cn1cc(-c2ccc(N(C(=O)NCc3ccccc3)[C@H]3CC[C@H](Nc4ncc(C#N)c(NC5COC5)n4)CC3)cc2)cn1 [Example 527, 3-benzyl-1-(trans-4-((5-cyano-4-(oxetan-3-ylamino)pyrimidin-2-yl)amino)cyclohexyl)-1-(4-(1-methyl-1H-pyrazol-4-yl)phenyl)urea] | 99 | 102 | 70 | 97
Cn1cc(-c2ccc(N(C(=O)NCc3ccccc3)[C@H]3CC[C@H](Nc4ncc(C#N)c(-c5[nH]ncc5Cl)n4)CC3)nc2)cn1 [Example 536, 3-benzyl-1-(trans-4-((4-(4-chloro-1H-pyrazol-5-yl)-5-cyanopyrimidin-2-yl)amino)cyclohexyl)-1-(5-(1-methyl-1H-pyrazol-4-yl)pyridin-2-yl)urea] | 95 | 96 | 82 | 91
Cn1cc(-c2cnc(N(C(=O)NCc3ccccc3)[C@H]3CC[C@H](Nc4ncc(C#N)c(NC5COC5)n4)CC3)cn2)cn1 [Example 539, 3-benzyl-1-(trans-4-((5-cyano-4-(oxetan-3-ylamino)pyrimidin-2-yl)amino)cyclohexyl)-1-(5-(1-methyl-1H-pyrazol-4-yl)pyrazin-2-yl)urea] | 109 | 99 | 71 | 96

More lines, main results first:

inhibition at 1 µM (CDK12/CycK enzyme) [%] | inhibition at 1 µM (CDK12/CycK complex) [%] | Compound | inhibition at 1 µM [1] [%] | inhibition at 1 µM (A2780 cells) [%]
99 | 103 | COc1ncc(-c2ccc(N(C(=O)NCc3ccccn3)[C@H]3CC[C@H](Nc4ncc(C(F)(F)F)c(OC5COC5)n4)CC3)nc2)cn1 [Example 610, 1-(5-(2-methoxypyrimidin-5-yl)pyridin-2-yl)-1-(trans-4-((4-(oxetan-3-yloxy)-5-(trifluoromethyl)pyrimidin-2-yl)amino)cyclohexyl)-3-(pyridin-2-ylmethyl)urea] | 49 | 98
107 | 99 | COc1ncc(-c2ccc(N(C(=O)NCc3ccccc3)[C@H]3CC[C@H](Nc4ncc(C#N)c(OC5COC5)n4)CC3)nc2)cn1 [Example 609, 3-benzyl-1-(trans-4-((5-cyano-4-(oxetan-3-yloxy)pyrimidin-2-yl)amino)cyclohexyl)-1-(5-(2-methoxypyrimidin-5-yl)pyridin-2-yl)urea] | 41 | 99
115 | 100 | COc1ncc(-c2ccc(N(C(=O)NCc3ccccc3)[C@H]3CC[C@H](Nc4ncc(C(F)(F)F)c(NC5COC5)n4)CC3)nc2)cn1 [Example 589, 3-benzyl-1-(5-(2-methoxypyrimidin-5-yl)pyridin-2-yl)-1-(trans-4-((4-(oxetan-3-ylamino)-5-(trifluoromethyl)pyrimidin-2-yl)amino)cyclohexyl) urea] | 78 | 97
108 | 83 | COc1ncc(-c2ccc(N(C(=O)OCc3ccccc3)[C@H]3CC[C@H](Nc4ncc(C(F)(F)F)c(N5CC(F)(CO)C5)n4)CC3)nc2)cn1 [Example 600, benzyl (trans-4-((4-(3-fluoro-3-(hydroxymethyl)azetidin-1-yl)-5-(trifluoromethyl)pyrimidin-2-yl)amino)cyclohexyl) (5-(2-methoxypyrimidin-5-yl)pyridin-2-yl)carbamate] | 81 | 93
